Experimental data reported in ChEMBL document CHEMBL1201862, “PubChem BioAssay data set” (2004).
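Protocol summary: plate cells (96-well), add compound at 5 concentrations, incubate 48 h, interpolate endpoints linearly. Here, GI50 denotes the concentration required for 50% inhibition of growth.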 Calls of active or inactive are those of the source. Cut-off read from the data, not from the text of the source: active = GI50 up to about 1.1 µM and inactive = higher.

Assays:
Assay in all cases: NCI anticancer screen, dose series, 48 h
786-0 = tested on: 786-0
A549 = tested on: A549
ACHN = tested on: ACHN
CCRF-CEM = tested on: CCRF-CEM
COLO 205 = tested on: COLO 205
DMS-114 = tested on: DMS-114
DMS-273 = tested on: DMS-273
EKVX = tested on: EKVX
HCT-116 = tested on: HCT-116
HCT-15 = tested on: HCT-15
HL-60 = tested on: HL-60
HOP-62 = tested on: HOP-62
HT-29 = tested on: HT-29
IGROV-1 = tested on: IGROV-1
K562 = tested on: K562
KM-20L2 = tested on: KM-20L2
KM12 = tested on: KM12
LOX IMVI = tested on: LOX IMVI
LXFL 529 = tested on: LXFL 529
M14 = tested on: M14
M19-MEL = tested on: M19-MEL
MOLT-4 = tested on: MOLT-4
Malme-3M = tested on: Malme-3M
NCI-H226 = tested on: NCI-H226
NCI-H23 = tested on: NCI-H23
NCI-H460 = tested on: NCI-H460
NCI-H522 = tested on: NCI-H522
OVCAR-3 = tested on: OVCAR-3
OVCAR-4 = tested on: OVCAR-4
OVCAR-5 = tested on: OVCAR-5
OVCAR-8 = tested on: OVCAR-8
RPMI-8226 = tested on: RPMI-8226
RXF 393 = tested on: RXF 393
SF-268 = tested on: SF-268
SF-295 = tested on: SF-295
SF-539 = tested on: SF-539
SK-MEL-28 = tested on: SK-MEL-28
SK-MEL-2 = tested on: SK-MEL-2
SK-MEL-5 = tested on: SK-MEL-5
SN12C = tested on: SN12C
SNB-19 = tested on: SNB-19
SNB-75 = tested on: SNB-75
SNB-78 = tested on: SNB-78
SR = tested on: SR
SW-620 = tested on: SW-620
TK-10 = tested on: TK-10
U-251 = tested on: U-251
UACC-62 = tested on: UACC-62
UO-31 = tested on: UO-31
XF498 = tested on: XF498

Measured: GI50

CCN(CC)C(=O)CCn1ccc(=O)[nH]c1=O
> 100 µM: HCT-15
inactive: 786-0 > 100 µM | A549 > 100 µM | ACHN > 100 µM | CCRF-CEM > 100 µM | COLO 205 > 100 µM | DMS-114 > 100 µM | DMS-273 > 100 µM | EKVX > 100 µM | HCT-116 > 100 µM | HL-60 > 100 µM | HOP-62 > 100 µM | HT-29 > 100 µM | IGROV-1 > 100 µM | K562 > 100 µM | KM-20L2 > 100 µM | KM12 > 100 µM | LOX IMVI > 100 µM | LXFL 529 > 100 µM | M14 > 100 µM | M19-MEL > 100 µM | MOLT-4 > 100 µM | Malme-3M > 100 µM | NCI-H226 > 100 µM | NCI-H23 > 100 µM | NCI-H460 > 100 µM | NCI-H522 > 100 µM | OVCAR-3 > 100 µM | OVCAR-4 > 100 µM | OVCAR-5 > 100 µM | OVCAR-8 > 100 µM | RPMI-8226 > 100 µM | RXF 393 > 100 µM | SF-268 > 100 µM | SF-295 > 100 µM | SF-539 > 100 µM | SK-MEL-28 > 100 µM | SK-MEL-2 > 100 µM | SK-MEL-5 > 100 µM | SN12C > 100 µM | SNB-19 > 100 µM | SNB-75 43.1 µM | SNB-78 > 100 µM | SR > 100 µM | SW-620 > 100 µM | TK-10 > 100 µM | U-251 > 100 µM | UACC-62 > 100 µM | UO-31 > 100 µM | XF498 > 100 µM
